Drawing on patent EP2818472A1, “Imidazo[4,5-c]pyridine and pyrrolo[3,2-c]pyridine compounds as G-protein-coupled receptor kinase 5 (GRK5) modulators” (Max-Planck-Gesellschaft zur Förderung der Wissenschaften …, priority 2013, dated 2014), this text covers Emax for 16 compounds.

Each structure is given as a SMILES string.

This assay relates to beta-TC6 cells. As to the kind of experiment: Insulin HTRF assay (relative activity Ar) in beta-TC6 cells. In kind it is cell-based, mouse. To be noted: Mus musculus, Beta-TC6, 4 h, insulin HTRF, supernatant of beta-TC6 cells, incubation with test compound at 37°C for 2, 3, 4h; read-out: Ar (relative activity). The method, boiled down:
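beta-TC6 cells (15k/well, seeded 24 or 48 h) washed, then exposed to compound in induction buffer (0.5% DMSO final) for 2, 3 or 4 h at 37°C.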
Background: TR-FRET usually uses a lanthanide donor and a delayed reading to cut background.
With `COCCNC(=O)c1cccc(-c2nc3c(Nc4cccc(OC)c4)nccc3[nH]2)c1` [Compound 386, 3-[4-(3-methoxyanilino)-1H-imidazo[4,5-c]pyridin-2-yl]-N-(2-methoxyethyl)benzamide], the Emax is 50 to 100%. For the compound `CNc1nc2cnc(-c3cccnc3OC)cc2n1-c1ccccc1` [Compound 788, 6-(2-methoxy-3-pyridyl)-N-methyl-1-phenyl-imidazo[4,5-c]pyridin-2-amine], the Emax lay within 30 to 50%.

With `COc1ccc(Nc2cc3c(cn2)nc(NCc2ccc(OC)c(OC)c2)n3C)c(OC)c1` [Compound 602, N6-(2,4-dimethoxyphenyl)-N2-[(3,4-dimethoxyphenyl)methyl]-1-methyl-imidazo[4,5-c]pyridine-2,6-diamine], the Emax was 30 to 50%.

Consider `COc1ccc(-c2nc3c(NCCc4ccccn4)nccc3[nH]2)cc1` [Compound 394, 2-(4-methoxyphenyl)-N-[2-(2-pyridyl)ethyl]-1H-imidazo[4,5-c]pyridin-4-amine], for which the Emax is 30 to 50%. With `COc1cc(Nc2cc3c(cn2)nc(-c2ccccc2)n3C)cc(OC)c1OC` [Compound 701, 1-methyl-2-phenyl-N-(3,4,5-trimethoxyphenyl)imidazo[4,5-c]pyridin-6-amine], the Emax was in the range of 50 to 100%.

For the compound `COc1ccc(-c2nc3c(Nc4cccc(N(C)C)c4)nccc3[nH]2)cc1OC` [Compound 343, N1-[2-(3,4-dimethoxyphenyl)-1H-imidazo[4,5-c]pyridin-4-yl]-N3,N3-dimethyl-benzene-1,3-diamine], the Emax lay in the range of 50 to 100%.

In the case of `COc1ccc(-c2nc3c(N4CCOCC4)nccc3[nH]2)cc1` [Compound 399, 4-[2-(4-methoxyphenyl)-1H-imidazo[4,5-c]pyridin-4-yl]morpholine], the Emax was 30 to 50%.

Regarding `CNc1nc2cnc(Nc3cccc(OC(C)C)c3)cc2n1Cc1ccc(OC)c(OC)c1` [Compound 676, 1-[(3,4-dimethoxyphenyl)methyl]-N6-(3-isopropoxyphenyl)-N2-methyl-imidazo[4,5-c]pyridine-2,6-diamine], the Emax lay in the range of 30 to 50%. As for `CNc1nc2cnc(-c3ccc(Cl)cc3)cc2n1Cc1ccccc1` [Compound 792, 1-benzyl-6-(4-chlorophenyl)-N-methyl-imidazo[4,5-c]pyridin-2-amine], the Emax lay within 30 to 50%. Consider `Oc1ccc(-c2nc3c(Nc4ccccc4)nccc3[nH]2)cc1` [Compound 365, 4-(4-anilino-1H-imidazo[4,5-c]pyridin-2-yl)phenol], for which the Emax was in the range of 30 to 50%. Take `Cn1c(-c2ccsc2)cc2c(Nc3cccc(NS(C)(=O)=O)c3)nccc21` [Compound 286, N-[3-[[1-methyl-2-(3-thienyl)pyrrolo[3,2-c]pyridin-4-yl]amino]phenyl]methanesulfonamide]: the Emax lay within 50 to 100%. As to `COc1cc(OC)cc(-c2cc3c(N4CCOCC4)nccc3n2C)c1` [Compound 192, 4-[2-(3,5-dimethoxyphenyl)-1-methyl-pyrrolo[3,2-c]pyridin-4-yl]morpholine], the Emax was in the range of 0 to 30%. In the case of `COc1cc(Nc2nc3cnc(-c4cccc(F)c4)cc3n2C)cc(OC)c1OC` [Compound 814, 6-(3-fluorophenyl)-1-methyl-N-(3,4,5-trimethoxyphenyl)imidazo[4,5-c]pyridin-2-amine] it was 0 to 30%; in that of `CNc1nc2cnc(Nc3cc(OC)c(OC)c(OC)c3)cc2n1Cc1ccco1` [Compound 519, 1-(2-furylmethyl)-N2-methyl-N6-(3,4,5-trimethoxyphenyl)imidazo[4,5-c]pyridine-2,6-diamine], 50 to 100%; in that of `COc1ccc(Nc2cc3[nH]c(-c4cccnc4)cc3cn2)cn1` [Compound 75, N-(6-methoxy-3-pyridyl)-2-(3-pyridyl)-1H-pyrrolo[3,2-c]pyridin-6-amine], over 100%. The result for `CNc1nc2cnc(-c3cccc(N)c3)cc2n1Cc1ccc(OC)c(OC)c1` [Compound 659, 6-(3-aminophenyl)-1-[(3,4-dimethoxyphenyl)methyl]-N-methyl-imidazo[4,5-c]pyridin-2-amine] reads 30 to 50%.
